Reference: patent publication US8822449B2, “Substituted aminoindanes and analogs thereof, and the pharmaceutical use thereof” (Sanofi, priority 2008, dated 2014)
Like-named read-outs stand apart in the source and are kept apart here.

Target: T1, sodium-proton exchanger of subtype 3 (NHE3) (Homo sapiens, UniProt P48764)
T1 construct: expressed in transfected cells
T1 sequence (P48764 26-834): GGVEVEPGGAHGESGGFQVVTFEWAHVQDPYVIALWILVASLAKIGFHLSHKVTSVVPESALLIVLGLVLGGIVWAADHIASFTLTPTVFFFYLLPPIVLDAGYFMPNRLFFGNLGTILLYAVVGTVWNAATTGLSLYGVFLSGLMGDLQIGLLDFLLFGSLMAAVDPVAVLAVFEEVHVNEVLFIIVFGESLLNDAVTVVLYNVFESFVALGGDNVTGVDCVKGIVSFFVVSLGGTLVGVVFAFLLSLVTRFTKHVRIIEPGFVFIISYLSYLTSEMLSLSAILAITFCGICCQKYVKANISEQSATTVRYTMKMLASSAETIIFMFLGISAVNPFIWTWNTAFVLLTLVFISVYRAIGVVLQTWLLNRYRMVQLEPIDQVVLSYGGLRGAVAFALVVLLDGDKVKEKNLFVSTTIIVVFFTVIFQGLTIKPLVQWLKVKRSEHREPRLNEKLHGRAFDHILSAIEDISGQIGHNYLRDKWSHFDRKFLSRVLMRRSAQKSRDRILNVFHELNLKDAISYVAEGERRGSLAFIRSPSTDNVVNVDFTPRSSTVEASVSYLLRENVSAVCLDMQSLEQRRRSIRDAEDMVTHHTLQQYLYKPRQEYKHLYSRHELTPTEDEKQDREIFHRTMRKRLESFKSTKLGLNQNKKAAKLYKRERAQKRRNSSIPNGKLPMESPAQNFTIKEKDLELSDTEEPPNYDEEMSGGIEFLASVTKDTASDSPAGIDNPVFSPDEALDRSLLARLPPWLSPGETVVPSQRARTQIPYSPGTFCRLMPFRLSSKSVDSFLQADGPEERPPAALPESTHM
Assay: Recovery of intracellular pH (pHi) after acidification in LAP1 cells stably expressing NHE3 (BCECF fluorescence, FLIPR)
Assay type: cell-based
Settings: LAP1 cells stably expressing NHE3, pH recovery after acidification, range 1 is % inhibition at 10 μM

[1] = read-out: Activity range (inhibitory effect on NHE3)

| inhibition at 10 µM [1] [%] | IC50 [1] [nM] | Compound | other results |
| --- | --- | --- | --- |
| 20 to 50 | – | Cc1ccc(F)c(O[C@H]2c3ccccc3CC[C@@H]2N2CCC[C@H](N)C2)c1 (racemic) [Example 155, (S)-1-[rac-trans-(1,2)-1-(2-fluoro-5-methylphenoxy)-1,2,3,4-tetrahydronaphthalen-2-yl]piperidin-3-ylamine] | – |
| 20 to 50 | – | CS(=O)(=O)c1ccc(O[C@H]2c3ccccc3C[C@@H]2CN2CCOCC2)cc1 (racemic) [Example 487, 4-[1-(4-methanesulfonylphenoxy)indan-2-ylmethyl]morpholine] | – |
| – | 1000 to 10000 | O=C1CNC(=O)N1c1ccc(O[C@H]2c3cc(Cl)cc(F)c3C[C@@H]2NC2CCCC2)c(F)c1 [Example 753, 3-[4-(trans-(1S,2S)-6-Chloro-2-cyclopentylamino-4-fluoro-indan-1-yloxy)-3-fluoro-phenyl]-imidazolidine-2,4-dione] | – |
| – | 1000 to 10000 | NS(=O)(=O)c1ccc(O[C@@H]2c3ccccc3C[C@H]2NC2CC2)c(F)c1 (racemic) [Example 703, 4-(rac-trans-(1,2)-2-Cyclopropylamino-indan-1-yloxy)-3-fluoro-benzenesulfonamide] | – |
| – | 1000 to 10000 | CS(=O)(=O)c1ccc(N[C@H]2c3ccccc3C[C@@H]2N2CCCC2)cc1 [Example 707, (4-Methanesulfonyl-phenyl)-((1S,2S)-2-pyrrolidin-1-yl-indan-1-yl)-amine] | – |
| – | 1000 to 10000 | NS(=O)(=O)c1ccc(O[C@H]2c3cc(Cl)cc(Cl)c3C[C@@H]2N2CCOCC2)c(Cl)c1Cl (racemic) [Example 358, 2,3-dichloro-4-(rac-trans-(1,2)-4,6-dichloro-2-morpholin-4-ylindan-1-yloxy)benzenesulfonamide] | – |
| 20 to 50 | – | Cc1c(Cl)cccc1O[C@H]1c2ccccc2CC[C@@H]1N1CCC[C@H](N)C1 (racemic) [Example 160, (S)-1-[rac-trans-(1,2)-1-(3-chloro-2-methylphenoxy)-1,2,3,4-tetrahydronaphthalen-2-yl]piperidin-3-ylamine] | – |
| – | < 1000 | CS(=O)(=O)c1ccc(O[C@H]2c3ccccc3C[C@@H]2N2CCCC2)cc1 (racemic) [Example 273, 1-[rac-trans-(1,2)-1-(4-methanesulfonylphenoxy)indan-2-yl]pyrrolidine] | – |
| – | < 1000 | N[C@@H]1CCCN([C@H]2Cc3c(Cl)cc(Cl)cc3[C@@H]2Oc2ccc(-n3cncn3)cc2)C1 [Example 97, (R)-1-[trans-(1S,2S)-4,6-dichloro-1-(4-[1,2,4]triazol-1-ylphenoxy)indan-2-yl]piperidin-3-ylamine] | – |
| 20 to 50 | – | Clc1cnccc1O[C@H]1c2ccccc2C[C@@H]1CN1CCCC1 (racemic) [Example 443, 3-chloro-4-(2-pyrrolidin-1-ylmethylindan-1-yloxy)pyridine] | – |
| – | – | CN(C)S(=O)(=O)c1ccc(O[C@@H]2c3ccccc3C[C@H]2N2CCCC2)c(Cl)c1Cl (racemic) [Example 362, 2,3-dichloro-N,N-dimethyl-4-(rac-trans-(1,2)-2-pyrrolidin-1-ylindan-1-yloxy)benzenesulfonamide] | IC50 (Activity range (inhibitory effect on NHE3)): < 1000 nM |
| – | 1000 to 10000 | N#Cc1ccc(O[C@@H]2c3ccccc3C[C@H]2N2C[C@H]3CNC[C@H]3C2)cc1Cl (racemic) [Example 393, 2-chloro-4-[rac-trans-(1,2)-2-(hexahydropyrrolo[3,4-c]pyrrol-2-yl)indan-1-yloxy]benzonitrile] | – |
| – | < 1000 | O=C1COC(=O)N1c1ccc(O[C@H]2c3cc(Cl)cc(Cl)c3C[C@@H]2N2CC[C@@H](O)C2)c(Cl)c1 [Example 424, 3-{3-chloro-4-[(1S,2S)-4,6-dichloro-2-((R)-3-hydroxypyrrolidin-1-yl)indan-1-yloxy]phenyl}oxazolidine-2,4-dione] | – |
| – | 1000 to 10000 | Cc1nc2cc(O[C@H]3c4cc(Cl)cc(Cl)c4C[C@@H]3N3CCNCC3)ccc2s1 (racemic) [Example 572, 5-(rac-trans-(1,2)-4,6-dichloro-2-piperazin-1-ylindan-1-yloxy)-2-methylbenzothiazole] | – |
| – | 1000 to 10000 | CS(=O)(=O)c1ccc(O[C@H]2c3ccccc3C[C@@H]2NCC2CCCC2)cc1 (racemic) [Example 705, Cyclopentylmethyl-[rac-trans-(1,2)-1-(4-methanesulfonyl-phenoxy)-indan-2-yl]-amine] | – |
| 20 to 50 | – | CS(=O)(=O)c1ccccc1O[C@H]1c2cc(Cl)cc(Cl)c2C[C@@H]1N1CCCC1 [Example 247, 1-[(1S,2S)-4,6-dichloro-1-(2-methanesulfonylphenoxy)indan-2-yl]pyrrolidine] | – |
| – | 1000 to 10000 | Brc1ccccc1O[C@@H]1c2ccccc2C[C@H]1N1C[C@H]2CNC[C@H]2C1 (racemic) [Example 11, 2-[rac-trans-(1,2)-1-(2-bromophenoxy)indan-2-yl]octahydropyrrolo[3,4-c]pyrrole] | – |
| – | < 1000 | NS(=O)(=O)c1ccc(OC2c3ccccc3CC2N2CCCC2)c(Cl)c1Cl (racemic) [Example 357, 2,3-dichloro-4-(rac-trans-(1,2)-2-pyrrolidin-1-ylindan-1-yloxy)benzenesulfonamide] | – |
| 20 to 50 | – | N[C@H]1CCCN([C@H]2CCc3ccccc3[C@@H]2Oc2ccc(NC(=O)OCc3ccccc3)cc2)C1 (racemic) [Example 239, {4-[rac-trans-(1,2)-2-((S)-3-aminopiperidin-1-yl)-1,2,3,4-tetrahydronaphthalen-1-yloxy]phenyl}carbamic acid benzyl ester] | – |
| – | < 1000 | COC(=O)c1nccn1-c1ccc(O[C@H]2c3cc(Cl)cc(Cl)c3C[C@@H]2N2CC[C@@H](O)C2)c(F)c1 [Example 740, 1-{4-[trans-(1S,2S)-4,6-Dichloro-2-((R)-3-hydroxy-pyrrolidin-1-yl)-indan-1-yloxy]-3-fluoro-phenyl}-1H-imidazole-2-carboxylic acid methyl ester] | – |
| – | < 1000 | CC(=O)Nc1cccc(O[C@H]2c3cc(F)cc(Cl)c3C[C@@H]2N2CCNCC2)c1 (racemic) [Example 650, N-[3-(rac-trans-(1,2)-4-chloro-6-fluoro-2-piperazin-1-ylindan-1-yloxy)phenyl]acetamide] | – |
| – | < 1000 | CS(=O)(=O)c1ccc(O[C@H]2c3cc(Cl)cc(Cl)c3C[C@@H]2N2CC[C@@H](F)C2)cc1 [Example 100, (R)-1-[trans-(1S,2S)-4,6-dichloro-1-(4-methanesulfonylphenoxy)indan-2-yl]-3-fluoropyrrolidine] | – |
| 20 to 50 | – | CS(=O)(=O)c1ccccc1O[C@H]1c2ccccc2CC[C@@H]1N1CCC[C@@H](N)C1 (racemic) [Example 45, (R)-1-[rac-trans-(1,2)-1-(2-methanesulfonylphenoxy)-1,2,3,4-tetrahydronaphthalen-2-yl]piperidin-3-ylamine] | – |
| 20 to 50 | – | Cc1nc2cc(O[C@H]3c4cc(Cl)cc(Cl)c4C[C@@H]3N3CC[C@@H](O)C3)ccc2s1 [Example 96, (R)-1-[trans-(1S,2S)-4,6-dichloro-1-(2-methylbenzothiazol-5-yloxy)indan-2-yl]pyrrolidin-3-ol] | – |
| – | < 1000 | CS(=O)(=O)c1ccc(O[C@H]2c3cc(Cl)cc(Cl)c3C[C@@H]2N2C[C@H]3CNC[C@H]3C2)cc1 [Example 3, 2-[trans-(1S,2S)-4,6-dichloro-1-(4-methanesulfonylphenoxy)indan-2-yl]octahydropyrrolo[3,4-c]pyrrole] | – |
| 20 to 50 | – | NS(=O)(=O)c1ccc(O[C@H]2c3ccccc3C[C@@H]2NCc2ccccc2)c(F)c1 (racemic) [Example 459, 4-(2-benzylaminoindan-1-yloxy)-3-fluorobenzenesulfonamide] | – |
| 20 to 50 | – | N[C@H]1CCCN([C@H]2CCc3ccccc3[C@@H]2Oc2ccncc2)C1 (racemic) [Example 191, (S)-1-[rac-trans-(1,2)-1-(pyridin-4-yloxy)-1,2,3,4-tetrahydronaphthalen-2-yl]piperidin-3-ylamine] | – |
| – | 1000 to 10000 | N#Cc1ccc(O[C@H]2c3cc(Cl)cc(Cl)c3C[C@@H]2N2CC[C@@H](O)C2)c(F)c1 [Example 554, 4-[trans-(1S,2S)-4,6-dichloro-2-((R)-3-hydroxypyrrolidin-1-yl)indan-1-yloxy]-3-fluorobenzonitrile] | – |
| – | 1000 to 10000 | N[C@@H]1CCCN([C@H]2CCc3ccccc3[C@@H]2Oc2cccc3ncccc23)C1 (racemic) [Example 89, (R)-1-[rac-trans-(1,2)-1-(quinolin-5-yloxy)-1,2,3,4-tetrahydronaphthalen-2-yl]piperidin-3-ylamine] | – |
| 20 to 50 | – | N[C@@H]1CCCN([C@H]2CCc3ccccc3[C@@H]2Oc2ccc(Cl)cc2)C1 (racemic) [Example 66, (R)-1-[rac-trans-(1,2)-1-(4-chlorophenoxy)-1,2,3,4-tetrahydronaphthalen-2-yl]piperidin-3-ylamine] | – |
